Measurements as given in PMC9927415, “Tyrosine Kinase Inhibitors Display Potent Activity against Cryptosporidium parvum” (Microbiology Spectrum, 2022).

Key:
Assay in all cases: KINOMEscan competitive binding, whole panel
panel of 203 kinases [1] = target: T1, panel of 203 kinases (Homo sapiens, UniProt P29376); settings: 10 µM, n=1; kinase LTK; read-out: Percent inhibition LTK
T1 construct: purchased DiscoverX (KINOMEscan)
From the text: (§1) The kinases were expressed as fusions to T7 bacteriophage. This is a sensitive, competitive binding assay where test compounds were used to displace immobilized ATP-site binding probe ligands from kinases of interest. The amount of kinase that remained bound to the immobilized probe ligands on the solid support was quantified. Percentage inhibition data were was plotted on kinome trees using the web-based tool KinMap (http://www.kinhub.org/kinmap) ([60]).

panel of 203 kinases [2] = target: T2, panel of 203 kinases (Homo sapiens, UniProt P08631); settings: 10 µM, n=1; kinase HCK; read-out: Percent inhibition HCK
T2 construct: purchased DiscoverX (KINOMEscan)
From the text: as §1

panel of 203 kinases [3] = target: T3, panel of 203 kinases (Homo sapiens, UniProt Q96NX5); settings: 10 µM, n=1; kinase CAMK1G; read-out: Percent inhibition CAMK1G
T3 construct: purchased DiscoverX (KINOMEscan)
From the text: as §1

panel of 203 kinases [4] = target: T4, panel of 203 kinases (Homo sapiens, UniProt P49761); settings: 10 µM, n=1; kinase CLK3; read-out: Percent inhibition CLK3
T4 construct: purchased DiscoverX (KINOMEscan)
T4 sequence (P49761 whole entry): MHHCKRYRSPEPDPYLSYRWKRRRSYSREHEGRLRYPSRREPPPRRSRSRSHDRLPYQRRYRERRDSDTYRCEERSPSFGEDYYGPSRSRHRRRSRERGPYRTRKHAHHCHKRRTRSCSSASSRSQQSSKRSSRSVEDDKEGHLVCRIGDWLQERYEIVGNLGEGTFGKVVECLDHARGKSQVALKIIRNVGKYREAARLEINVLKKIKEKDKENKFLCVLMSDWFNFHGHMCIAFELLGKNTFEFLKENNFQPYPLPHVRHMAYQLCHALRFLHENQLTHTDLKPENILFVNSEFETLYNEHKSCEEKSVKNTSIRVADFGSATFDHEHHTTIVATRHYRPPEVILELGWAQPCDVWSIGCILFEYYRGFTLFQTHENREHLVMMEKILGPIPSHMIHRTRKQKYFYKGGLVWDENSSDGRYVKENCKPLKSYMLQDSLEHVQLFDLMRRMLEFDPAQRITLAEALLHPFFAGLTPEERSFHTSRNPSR
From the text: as §1

panel of 203 kinases [5] = target: T5, panel of 203 kinases (Homo sapiens, UniProt P54753); settings: 10 µM, n=1; kinase EPHB3; read-out: Percent inhibition EPHB3
T5 construct: purchased DiscoverX (KINOMEscan)
T5 sequence (P54753 34-998): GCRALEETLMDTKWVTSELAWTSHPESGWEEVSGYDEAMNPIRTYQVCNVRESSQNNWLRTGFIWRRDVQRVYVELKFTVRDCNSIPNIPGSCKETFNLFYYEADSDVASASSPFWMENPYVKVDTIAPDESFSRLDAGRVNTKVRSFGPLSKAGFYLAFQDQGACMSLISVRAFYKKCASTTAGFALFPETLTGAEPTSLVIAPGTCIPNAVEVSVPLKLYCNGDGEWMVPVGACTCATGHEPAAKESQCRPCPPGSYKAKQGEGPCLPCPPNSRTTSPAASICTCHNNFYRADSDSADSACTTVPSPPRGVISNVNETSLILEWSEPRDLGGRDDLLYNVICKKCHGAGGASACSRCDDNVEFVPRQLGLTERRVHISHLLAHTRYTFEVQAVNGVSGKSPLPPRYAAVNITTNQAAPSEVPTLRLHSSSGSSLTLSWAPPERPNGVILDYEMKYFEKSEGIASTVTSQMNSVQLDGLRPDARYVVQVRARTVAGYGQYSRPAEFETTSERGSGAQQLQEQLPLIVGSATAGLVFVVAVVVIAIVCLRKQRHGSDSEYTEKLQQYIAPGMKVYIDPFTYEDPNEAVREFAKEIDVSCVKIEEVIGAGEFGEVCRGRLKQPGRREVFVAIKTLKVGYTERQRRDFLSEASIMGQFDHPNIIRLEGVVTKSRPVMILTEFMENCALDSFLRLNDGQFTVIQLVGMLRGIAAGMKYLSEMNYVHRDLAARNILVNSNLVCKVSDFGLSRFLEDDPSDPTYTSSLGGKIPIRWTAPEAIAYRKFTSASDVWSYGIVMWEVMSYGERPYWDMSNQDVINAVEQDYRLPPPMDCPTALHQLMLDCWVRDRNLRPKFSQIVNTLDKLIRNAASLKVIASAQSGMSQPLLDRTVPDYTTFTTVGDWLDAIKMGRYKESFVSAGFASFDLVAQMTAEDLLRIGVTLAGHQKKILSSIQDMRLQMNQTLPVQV
From the text: as §1

panel of 203 kinases [6] = target: T6, panel of 203 kinases (Homo sapiens, UniProt P31749); settings: 10 µM, n=1; kinase AKT1; read-out: Percent inhibition AKT1
T6 construct: purchased DiscoverX (KINOMEscan)
T6 sequence (P31749 whole entry): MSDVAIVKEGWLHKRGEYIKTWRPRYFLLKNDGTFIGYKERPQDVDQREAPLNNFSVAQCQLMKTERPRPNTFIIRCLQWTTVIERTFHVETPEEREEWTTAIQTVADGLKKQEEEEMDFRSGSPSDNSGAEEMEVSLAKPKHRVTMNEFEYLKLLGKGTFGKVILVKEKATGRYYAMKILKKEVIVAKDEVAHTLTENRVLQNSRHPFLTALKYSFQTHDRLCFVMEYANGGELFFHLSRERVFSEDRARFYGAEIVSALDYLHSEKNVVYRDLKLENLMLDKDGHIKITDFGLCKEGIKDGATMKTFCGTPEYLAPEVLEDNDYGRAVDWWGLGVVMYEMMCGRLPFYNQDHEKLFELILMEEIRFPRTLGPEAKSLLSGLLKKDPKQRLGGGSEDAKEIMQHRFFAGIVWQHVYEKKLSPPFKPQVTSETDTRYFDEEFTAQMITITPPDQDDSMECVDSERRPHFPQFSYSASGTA
From the text: as §1

panel of 203 kinases [7] = target: T7, panel of 203 kinases (Homo sapiens, UniProt P36894); settings: 10 µM, n=1; kinase BMPR1A; read-out: Percent inhibition BMPR1A
T7 construct: purchased DiscoverX (KINOMEscan)
T7 sequence (P36894 24-532): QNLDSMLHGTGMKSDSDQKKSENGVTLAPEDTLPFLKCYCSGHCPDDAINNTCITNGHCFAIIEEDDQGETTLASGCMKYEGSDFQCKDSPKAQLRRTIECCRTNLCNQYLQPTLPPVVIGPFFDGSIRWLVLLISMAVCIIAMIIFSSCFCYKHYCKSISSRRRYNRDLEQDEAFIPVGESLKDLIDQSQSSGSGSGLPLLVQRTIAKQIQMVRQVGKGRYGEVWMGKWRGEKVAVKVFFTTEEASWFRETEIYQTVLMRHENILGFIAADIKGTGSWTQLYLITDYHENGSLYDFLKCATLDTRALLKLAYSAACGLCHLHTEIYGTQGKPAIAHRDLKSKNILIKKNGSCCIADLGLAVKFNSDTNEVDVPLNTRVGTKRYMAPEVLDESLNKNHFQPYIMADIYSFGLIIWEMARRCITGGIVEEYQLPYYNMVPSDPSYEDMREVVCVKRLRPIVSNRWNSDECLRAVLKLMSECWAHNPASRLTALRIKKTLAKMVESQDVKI
From the text: as §1

panel of 203 kinases [8] = target: T8, panel of 203 kinases (Homo sapiens, UniProt P45984); settings: 10 µM, n=1; kinase JNK2; read-out: Percent inhibition JNK2
T8 construct: purchased DiscoverX (KINOMEscan)
T8 sequence (P45984 whole entry): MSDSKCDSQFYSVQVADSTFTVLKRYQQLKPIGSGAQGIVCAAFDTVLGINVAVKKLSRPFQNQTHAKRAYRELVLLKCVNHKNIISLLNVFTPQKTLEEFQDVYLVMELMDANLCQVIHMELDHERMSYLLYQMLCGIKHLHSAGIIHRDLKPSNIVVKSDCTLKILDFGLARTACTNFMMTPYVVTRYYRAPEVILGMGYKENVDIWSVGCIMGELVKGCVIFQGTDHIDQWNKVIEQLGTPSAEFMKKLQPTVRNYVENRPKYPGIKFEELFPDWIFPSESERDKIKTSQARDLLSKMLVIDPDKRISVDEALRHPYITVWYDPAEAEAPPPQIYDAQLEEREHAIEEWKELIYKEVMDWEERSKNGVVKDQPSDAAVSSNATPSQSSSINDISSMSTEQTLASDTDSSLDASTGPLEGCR
From the text: as §1

panel of 203 kinases [9] = target: T9, panel of 203 kinases (Homo sapiens, UniProt Q13554); settings: 10 µM, n=1; kinase CAMK2B; read-out: Percent inhibition CAMK2B
T9 construct: purchased DiscoverX (KINOMEscan)
From the text: as §1

panel of 203 kinases [10] = target: T10, panel of 203 kinases (Homo sapiens, UniProt P07333); settings: 10 µM, n=1; kinase CSF1R; read-out: Percent inhibition CSF1R
T10 construct: purchased DiscoverX (KINOMEscan)
From the text: as §1

panel of 203 kinases [11] = target: T11, panel of 203 kinases (Homo sapiens, UniProt P11362); settings: 10 µM, n=1; kinase FGFR1; read-out: Percent inhibition FGFR1
T11 construct: purchased DiscoverX (KINOMEscan)
T11 sequence (P11362 22-822): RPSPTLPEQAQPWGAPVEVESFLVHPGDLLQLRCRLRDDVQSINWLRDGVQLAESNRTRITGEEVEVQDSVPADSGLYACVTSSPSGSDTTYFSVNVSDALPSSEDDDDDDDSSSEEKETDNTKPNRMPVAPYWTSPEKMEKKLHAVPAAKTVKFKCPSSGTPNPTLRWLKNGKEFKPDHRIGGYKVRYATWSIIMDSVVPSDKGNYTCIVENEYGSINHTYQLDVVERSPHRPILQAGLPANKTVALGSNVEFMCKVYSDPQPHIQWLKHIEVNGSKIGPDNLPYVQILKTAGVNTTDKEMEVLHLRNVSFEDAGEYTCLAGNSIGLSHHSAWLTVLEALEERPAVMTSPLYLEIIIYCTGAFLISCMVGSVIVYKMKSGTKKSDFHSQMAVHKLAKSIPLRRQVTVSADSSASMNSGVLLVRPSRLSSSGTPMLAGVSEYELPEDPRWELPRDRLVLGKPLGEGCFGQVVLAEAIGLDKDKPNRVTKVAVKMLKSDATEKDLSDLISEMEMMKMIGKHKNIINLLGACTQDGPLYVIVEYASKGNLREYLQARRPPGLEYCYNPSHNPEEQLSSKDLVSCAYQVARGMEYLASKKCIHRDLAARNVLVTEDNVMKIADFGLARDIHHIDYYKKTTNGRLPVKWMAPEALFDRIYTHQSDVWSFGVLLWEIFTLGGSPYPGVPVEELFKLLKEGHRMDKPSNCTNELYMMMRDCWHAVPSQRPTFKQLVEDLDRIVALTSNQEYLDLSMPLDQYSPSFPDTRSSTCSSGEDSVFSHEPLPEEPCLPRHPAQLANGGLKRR
From the text: as §1

panel of 203 kinases [12] = target: T12, panel of 203 kinases (Homo sapiens, UniProt Q9UQM7); settings: 10 µM, n=1; kinase CAMK2A; read-out: Percent inhibition CAMK2A
T12 construct: purchased DiscoverX (KINOMEscan)
T12 sequence (Q9UQM7 whole entry): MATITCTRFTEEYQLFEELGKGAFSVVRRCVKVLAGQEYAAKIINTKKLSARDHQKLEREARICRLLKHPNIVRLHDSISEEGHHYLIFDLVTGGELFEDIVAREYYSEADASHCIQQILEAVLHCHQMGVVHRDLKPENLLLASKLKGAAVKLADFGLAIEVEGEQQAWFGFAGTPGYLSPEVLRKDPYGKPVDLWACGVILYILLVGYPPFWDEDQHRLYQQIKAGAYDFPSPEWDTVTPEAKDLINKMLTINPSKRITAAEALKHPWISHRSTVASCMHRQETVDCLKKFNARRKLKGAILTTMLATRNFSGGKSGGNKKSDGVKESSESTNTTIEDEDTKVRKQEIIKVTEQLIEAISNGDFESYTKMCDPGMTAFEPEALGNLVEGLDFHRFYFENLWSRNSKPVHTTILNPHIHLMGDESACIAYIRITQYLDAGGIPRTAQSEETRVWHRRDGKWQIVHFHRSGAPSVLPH
From the text: as §1

panel of 203 kinases [13] = target: T13, panel of 203 kinases (Homo sapiens, UniProt P21802); settings: 10 µM, n=1; kinase FGFR2; read-out: Percent inhibition FGFR2
T13 construct: purchased DiscoverX (KINOMEscan)
T13 sequence (P21802 22-821): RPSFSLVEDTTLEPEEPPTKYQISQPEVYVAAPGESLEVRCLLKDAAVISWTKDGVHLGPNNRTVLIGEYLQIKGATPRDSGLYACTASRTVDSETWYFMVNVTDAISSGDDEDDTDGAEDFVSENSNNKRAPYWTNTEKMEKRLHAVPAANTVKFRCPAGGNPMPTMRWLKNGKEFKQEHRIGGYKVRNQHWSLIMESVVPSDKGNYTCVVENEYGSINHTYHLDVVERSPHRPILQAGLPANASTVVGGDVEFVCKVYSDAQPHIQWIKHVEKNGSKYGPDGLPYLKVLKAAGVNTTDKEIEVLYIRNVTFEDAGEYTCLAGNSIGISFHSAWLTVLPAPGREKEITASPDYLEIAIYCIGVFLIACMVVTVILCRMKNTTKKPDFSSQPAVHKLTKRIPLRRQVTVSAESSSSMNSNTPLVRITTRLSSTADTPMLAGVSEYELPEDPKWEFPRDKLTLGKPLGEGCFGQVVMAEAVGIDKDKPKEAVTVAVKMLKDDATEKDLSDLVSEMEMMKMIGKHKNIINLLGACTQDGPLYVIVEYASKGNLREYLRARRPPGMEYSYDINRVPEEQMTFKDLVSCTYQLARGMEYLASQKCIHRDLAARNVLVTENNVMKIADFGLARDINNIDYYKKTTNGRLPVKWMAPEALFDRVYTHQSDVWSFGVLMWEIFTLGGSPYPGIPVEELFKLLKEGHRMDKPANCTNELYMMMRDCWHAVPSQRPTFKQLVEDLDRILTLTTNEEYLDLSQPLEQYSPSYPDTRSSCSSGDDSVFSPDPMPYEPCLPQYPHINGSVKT
From the text: as §1

T1 sequence (P29376 17-864): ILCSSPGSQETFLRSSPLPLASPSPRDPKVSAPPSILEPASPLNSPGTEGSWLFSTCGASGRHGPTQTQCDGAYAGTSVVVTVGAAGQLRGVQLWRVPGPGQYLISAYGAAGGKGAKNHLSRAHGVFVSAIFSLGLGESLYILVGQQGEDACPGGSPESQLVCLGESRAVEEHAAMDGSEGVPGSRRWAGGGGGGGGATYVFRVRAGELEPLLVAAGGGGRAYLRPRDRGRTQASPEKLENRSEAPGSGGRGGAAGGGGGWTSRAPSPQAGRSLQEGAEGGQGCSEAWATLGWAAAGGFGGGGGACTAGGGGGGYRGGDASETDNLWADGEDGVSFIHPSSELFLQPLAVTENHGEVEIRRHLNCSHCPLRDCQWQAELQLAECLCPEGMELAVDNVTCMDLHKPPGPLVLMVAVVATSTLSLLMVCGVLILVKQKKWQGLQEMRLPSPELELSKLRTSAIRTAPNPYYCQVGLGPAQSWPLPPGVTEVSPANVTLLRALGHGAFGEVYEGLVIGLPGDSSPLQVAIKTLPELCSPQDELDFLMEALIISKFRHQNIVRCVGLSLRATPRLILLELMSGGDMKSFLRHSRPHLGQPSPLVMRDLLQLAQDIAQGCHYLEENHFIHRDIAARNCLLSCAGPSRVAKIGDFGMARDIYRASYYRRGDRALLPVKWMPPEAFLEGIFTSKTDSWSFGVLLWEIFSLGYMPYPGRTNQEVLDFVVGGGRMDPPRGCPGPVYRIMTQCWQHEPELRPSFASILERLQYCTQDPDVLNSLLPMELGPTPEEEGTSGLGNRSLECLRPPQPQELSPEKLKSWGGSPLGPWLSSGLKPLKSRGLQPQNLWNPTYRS

| Structure (SMILES) | inhibition at 10 µM (panel of 203 kinases [1]) [%] | inhibition at 10 µM (panel of 203 kinases [2]) [%] | inhibition at 10 µM (panel of 203 kinases [3]) [%] | inhibition at 10 µM (panel of 203 kinases [4]) [%] | inhibition at 10 µM (panel of 203 kinases [5]) [%] | inhibition at 10 µM (panel of 203 kinases [6]) [%] | inhibition at 10 µM (panel of 203 kinases [7]) [%] | inhibition at 10 µM (panel of 203 kinases [8]) [%] | inhibition at 10 µM (panel of 203 kinases [9]) [%] | inhibition at 10 µM (panel of 203 kinases [10]) [%] | inhibition at 10 µM (panel of 203 kinases [11]) [%] | inhibition at 10 µM (panel of 203 kinases [12]) [%] | inhibition at 10 µM (panel of 203 kinases [13]) [%] |
| --- | --- | --- | --- | --- | --- | --- | --- | --- | --- | --- | --- | --- | --- |
| CN1CCN(c2ccc(Nc3nccc(-c4cnn5ncccc45)n3)cc2C#N)CC1 [Compound 1] | 0 | 0 | 90.5 | 98.7 | 0 | 0 | 0 | 96.5 | 96.5 | 99.4 | 74.1 | 98.7 | 70.1 |
| COc1ccc(Nc2nccc(-c3cnn4ncccc34)n2)cc1 [Compound 2] | 80.8 | 0 | 71.5 | 94.8 | 0 | 0 | 0 | 99.1 | 73.9 | 99.8 | 0 | 82.5 | 0 |
| Cc1ccc(O)cc1Nc1ccnc(Nc2cccc(C(N)=O)c2)n1 [Compound 3] | 0 | 99.8 | 0 | 0 | 100 | 0 | 99.2 | 0 | 0 | 98.9 | 0 | 0 | 0 |
| Cc1ccc(O)cc1N(C)c1ccnc(Nc2cccc(S(N)(=O)=O)c2)n1 [Compound 4] | 69.7 | 99.8 | 0 | 70.5 | 100 | 0 | 97 | 71.3 | 0 | 100 | 0 | 0 | 0 |
| Fc1cccc(COc2ccc(Nc3ncnc4c3CN(CCN3CCOCC3)CC4)cc2Cl)c1 [Compound 6] | 0 | 0 | 0 | 0 | 0 | 0 | 0 | 0 | 0 | 0 | 0 | 0 | 0 |
| COc1cc(Nc2nccc(-c3sc(N)nc3-c3cccc(NC(=O)c4c(F)cccc4F)c3)n2)cc(OC)c1OC [Compound 7] | 0 | 99.7 | 69.4 | 0 | 0 | 0 | 0 | 99 | 0 | 100 | 99.7 | 0 | 100 |
| C[C@@H](Oc1cc(-c2cnc3ccccn23)sc1C(N)=O)c1ccccc1Cl [Compound 8] | 0 | 0 | 0 | 0 | 0 | 0 | 0 | 0 | 0 | 0 | 0 | 66.5 | 0 |
| c1ccc(COc2cccc(-c3ccnc4[nH]ccc34)c2)cc1 [Compound 9] | 0 | 0 | 0 | 0 | 0 | 0 | 0 | 0 | 0 | 0 | 0 | 0 | 0 |
| Clc1ccc(Nc2ncc(-c3ccccc3)s2)cc1 [Compound 10] | 0 | 0 | 0 | 0 | 0 | 0 | 0 | 0 | 0 | 0 | 0 | 0 | 0 |
| Nc1ncc2c(-c3ccncc3)c[nH]c2n1 [Compound 11] | 0 | 66.9 | 0 | 84.9 | 0 | 0 | 0 | 0 | 85.7 | 0 | 0 | 77.6 | 0 |
